Results published in article PMC7472354, “Enhanced Antimicrobial Activity of N-Terminal Derivatives of a Novel Brevinin-1 Peptide from The Skin Secretion of Odorrana schmackeri” (Toxins, 2020).
“Also recorded” adds a separate entry of the source. Where a SMILES comes first, the peptide text is derived from it.

Tests used:
MRSA [1] = assay: Treatment of MRSA-infected Galleria mellonella larvae; assay type: in vivo; conditions: 10 µL of 10^8 CFU/mL MRSA injected; peptide 25 or 50 mg/kg injected after 2 h; 30 larvae per group
Protocol: The in vivo study of antimicrobial activity of the peptides was evaluated using the larvae of Galleria mellonella, which was described in the previous study with minor modifications. The larvae of Galleria mellonella (250 ± 25 mg; Livefood UK Ltd., Rooks Bridge, UK) were selected. The MRSA culture was prepared the same way as the antimicrobial activity assay. Then, MRSA cells were collected and washed, and further diluted to 10^8 CFU/mL in the saline. Ten µL of MRSA suspension was injected to the larvae and placed in a petri dish. After 2 h, the MRSA infected larvae were administrated with 10 µL of peptides (25 mg/kg, 50 mg/kg) by injection. Saline and vancomycin (20 mg/kg) (Sigma-Aldrich, UK) were used as the negative control and positive control, respectively. Each sample group contained 10 larvae, and the experiment was repeated three times (30 larvae for each group in total). The survival curves were achieved using Prism (Version 6.0; GraphPad Software Inc., San Diego, CA, USA) and the log-rank test was employed to analyze the significance between the different treatments and the controls. * (p < 0.05), ** (p < 0.01) and *** (p < 0.001) represent statistical significance.

MRSA [2] = assay: Time-killing assay; assay type: cell-based, Staphylococcus aureus; conditions: peptide at 4 × MIC; colony counts on MHA; three independent experiments
Protocol: The time-killing assays were employed to determine the killing kinetics of the peptides on the selected bacteria strains. The experiment was performed as described previously. In brief, the bacteria culture was prepared the same way as the antimicrobial activity assay. A bacteria suspension (OD600 = 0.1) was mixed with the peptides at the concentration of their corresponding MICs and 4 × MICs. At different time intervals, 10 µL of aliquots of each sample was transferred into a clean tube and a series of 10-fold dilution was prepared in PBS. A volume of 100 µL of diluted bacteria suspension was spread on an MHA plate, and the number of the bacterial colonies that were formed after an overnight-incubation at 37 °C. The bacteria cultured without any treatment was employed as the negative (growth) control. Three experiments were run in triplicate.

MRSA [3] = assay: Skin disinfection test, pig skin model; set-up: species or system Staphylococcus aureus; conditions: 10 µL peptide at 1 × MIC on MRSA-inoculated pig skin wound, 37 °C, 4 days; SEM
Protocol: Specifically, pig skin was sterilized before using. The pig skins were cut into small pieces, and then, a rectangular groove was cut using a skin graft. 100 µL of logarithmic MRSA solution was inoculated on the wound, followed by incubating at 37 °C for 30 min. […] The pictures of wounds were captured by the digital camera after washing thrice with PBS, fixed with 2.5% (w/v) glutaraldehyde and dehydrated with a graded ethanol series. Finally, the MRSA cells which had attached to the wounded pig skin were visualized by SEM (Hitachi S-4800, Tokyo, Japan).

[4] = Circular dichroism, alpha-helical content (K2D3); assay type: physicochemical; conditions: CD, 50 µM peptide in 50% TFE in 10 mM NH4AC; helical content calculated with K2D3
Protocol: To further identify the secondary structure of purified peptides, they were dissolved in 10 mM ammonium acetate (NH4AC) and 50% trifluoroethanol (TFE) in 10 mM NH4AC, respectively, to achieve the concentration of 50 µM. […] The circular dichroism (CD) data of the peptides in TFE solution was submitted to the K2D3 webserver to analyse the α-helical content. Moreover, helical wheel projections of brevinin-1OS and its analogues were conducted (Figure A7) and the physicochemical properties of all peptides are summarized in Table 1.
Circular dichroism (CD) was employed to determine the secondary structure of the synthetic peptides in the different environment. The peptides were prepared in the aqueous solution, 10 mM NH4AC solution (pH 7.4), or the membrane mimicking solution, 50% TFE in 10 mM NH4AC, at a concentration of 50 µM. The proportion of helical content of each peptide in the 50% TFE in 10 mM NH4AC was calculated using the online server, K2D3 (http://cbdm-01.zdv.uni-mainz.de/~andrade/k2d3/). Physiochemical properties of the helical forming peptides were calculated online by Heliquest (http://heliquest.ipmc.cnrs.fr). Additionally, the secondary structures of peptides were predicted online by I-TASSER Predictions (https://zhanglab.ccmb.med.umich.edu/I-TASSER/).

horse red blood cells = conditions: 2 h
Protocol: The haemolytic activity of synthetic peptides was determined using the horse red blood cells that were extracted from the de-fibroblast whole horse blood (TCS Biosciences Ltd. Buckingham, UK). […] Briefly, the red blood cells were harvested and washed using PBS until all broken red blood cells were removed. Then, a 2% cell suspension was prepared using PBS. The peptide concentrations were set as antimicrobial activity assay and mixed with the red blood cells in the microcentrifuge tubes. After a 2 h-incubation at 37 °C, the tubes were centrifuged and the suspension was transferred into a clear 96 well plate. The absorbance of released haemoglobin in the suspension was detected at 570 nm by a plate reader. Besides, the red blood cells treated with PBS and 1% Triton X-100 were used as the negative and positive controls, respectively. […] The therapeutic index (TI) was further determined as below:(1) TI=HC50/product of n MICsn,

## CC(C)C[C@H](NC(=O)[C@H](C)NC(=O)[C@H](Cc1c[nH]c2ccccc12)NC(=O)[C@H](CCCCN)NC(=O)[C@@H]1CCCN1C(=O)[C@H](CC(C)C)NC(=O)[C@@H](N)Cc1ccccc1)C(=O)N[C@@H](CCCCN)C(=O)N[C@@H](Cc1c[nH]c2ccccc12)C(=O)N[C@@H](C)C(=O)N[C@@H](C)C(=O)N[C@@H](CCCCN)C(N)=O [OSf] (H-FLPKWALKWAAK-NH2; N-terminus assumed)
MRSA [1]
  mortality of MRSA-infected larvae: dramatically decreased the mortality; also recorded: reduced the mortality
MRSA [2]
  time to complete killing of MRSA: ≤ 45 min
MRSA [3]
  MRSA on infected pig skin wound after treatment: almost eradicated
[4]
  α-Helicity: 34.8%

## CC(C)C[C@H](NC(=O)[C@H](C)NC(=O)[C@H](Cc1c[nH]c2ccccc12)NC(=O)[C@H](CCCCN)NC(=O)[C@H](CC(C)C)NC(=O)[C@@H](N)Cc1ccccc1)C(=O)N[C@@H](CCCCN)C(=O)N[C@H](C(=O)N[C@@H](C)C(=O)N[C@@H](C)C(=O)N[C@@H](CCCCN)C(N)=O)C(C)C [OSd] (H-FLKWALKVAAK-NH2)
Horse red blood cells
  HC50 (concentration causing 50% haemolysis of the red blood cells): >512 µM
